Here are results for two compounds from patent US11104968B2, “Site-specific conjugation of linker drugs to antibodies and resulting ADCS” (Byondis B.V., priority 2014, dated 2021).

Each structure is given as a SMILES string. Starred links: 1 amine or outer side, 2 acyl side, 3 side chain; linkers in the order of their positions; H or OH if unused. Non-standard residues stand in square brackets, D forms with d. Residues, ends and D or L forms follow the SMILES beside them. *: point of attachment. Dolaproine = CO[C@@H]([C@@H]1CCCN1)[C@@H](C)C(=O)O; Hexanoyl(6-maleimido) = O=C1C=CC(=O)N1CCCCCC(=O)*; Dil = CC[C@H](C)[C@H](NC)[C@@H](CC(=O)O)OC; PABC = O=C(OCc1ccc(N[*:1])cc1)[*:2]; X1 = C[C@@H](N*)[C@@H](O)c1ccccc1; Cit = NC(=O)NCCC[C@H](N)C(=O)O; NMeV = CN[C@H](C(=O)O)C(C)C

Test [1] concerns 5T4-positive cell line MDA-MB-468. As to the kind of experiment: In vitro cytotoxicity, 5T4-positive cell line. The note with it: anti-5T4-vc-seco-DUBA ADCs. Type of test: cell-based, human. How it is done:
The potencies of the engineered anti-5T4 ADCs were equal to the conventionally linked ADC H8-wt on 5T4-expressing MDA-MB-468 cells (IC50 between 0.07 and 0.09 nM, Table 6).

The subject of test [2] is PSMA-positive cell line LNCaP-C4.2. Description: In vitro cytotoxicity, PSMA-positive cell line. Type of test: cell-based, human. The note with it: for % efficacy: at the highest concentration tested (~100 nM).

As usually defined, the IC50 is the concentration that inhibits the measured activity by half. On to `Cc1cccc2c(OC(=O)N(CCOCCO)CCN(C)C(=O)OCc3ccc(NC(=O)[C@H](CCCNC(N)=O)NC(=O)[C@@H](NC(=O)OCCOCCN4C(=O)C=CC4=O)C(C)C)cc3)cc3c(c12)[C@H](CCl)CN3C(=O)c1cn2cc(NC(=O)c3ccc(O)cc3)ccc2n1` [Free linker drug, vc-seco-DUBA], for which the half-inhibitory concentration (IC50) in test [1] was 20 pM; in test [2] (anti-PSMA-vc-seco-DUBA ADCs, based on drug equivalents), 20 pM. Moreover, the results for the “% efficacy” value in test [1] (at the highest concentration tested (~100 nM)) and in test [2] (anti-PSMA-vc-seco-DUBA ADCs) were 94% and 98%, respectively.

As to `CC[C@H](C)[C@@H]([C@@H](CC(=O)N1CCC[C@H]1[C@H](OC)[C@@H](C)C(=O)N[C@H](C)[C@@H](O)c1ccccc1)OC)N(C)C(=O)[C@@H](NC(=O)[C@H](C(C)C)N(C)C(=O)OCc1ccc(NC(=O)[C@H](CCCNC(N)=O)NC(=O)[C@@H](NC(=O)CCCCCN2C(=O)C=CC2=O)C(C)C)cc1)C(C)C` [Free linker drug (vc-MMAE), vc-MMAE] ({Hexanoyl(6-maleimido)}-V[Cit][PABC][NMeV]V[Dil][Dolaproine]-X1), in test [2] (anti-PSMA-vc-MMAE ADCs), half-maximal inhibition (IC50) required 230 pM and the “% efficacy” value was determined as 94%.
